Data as given in patent US11332476B2, “Fms-like tyrosine kinase inhibitors” (3SM BIOTRON INC., priority 2018, dated 2022).

Target: T1, FLT3 (Homo sapiens, UniProt P36888)
T1 sequence (P36888 27-993): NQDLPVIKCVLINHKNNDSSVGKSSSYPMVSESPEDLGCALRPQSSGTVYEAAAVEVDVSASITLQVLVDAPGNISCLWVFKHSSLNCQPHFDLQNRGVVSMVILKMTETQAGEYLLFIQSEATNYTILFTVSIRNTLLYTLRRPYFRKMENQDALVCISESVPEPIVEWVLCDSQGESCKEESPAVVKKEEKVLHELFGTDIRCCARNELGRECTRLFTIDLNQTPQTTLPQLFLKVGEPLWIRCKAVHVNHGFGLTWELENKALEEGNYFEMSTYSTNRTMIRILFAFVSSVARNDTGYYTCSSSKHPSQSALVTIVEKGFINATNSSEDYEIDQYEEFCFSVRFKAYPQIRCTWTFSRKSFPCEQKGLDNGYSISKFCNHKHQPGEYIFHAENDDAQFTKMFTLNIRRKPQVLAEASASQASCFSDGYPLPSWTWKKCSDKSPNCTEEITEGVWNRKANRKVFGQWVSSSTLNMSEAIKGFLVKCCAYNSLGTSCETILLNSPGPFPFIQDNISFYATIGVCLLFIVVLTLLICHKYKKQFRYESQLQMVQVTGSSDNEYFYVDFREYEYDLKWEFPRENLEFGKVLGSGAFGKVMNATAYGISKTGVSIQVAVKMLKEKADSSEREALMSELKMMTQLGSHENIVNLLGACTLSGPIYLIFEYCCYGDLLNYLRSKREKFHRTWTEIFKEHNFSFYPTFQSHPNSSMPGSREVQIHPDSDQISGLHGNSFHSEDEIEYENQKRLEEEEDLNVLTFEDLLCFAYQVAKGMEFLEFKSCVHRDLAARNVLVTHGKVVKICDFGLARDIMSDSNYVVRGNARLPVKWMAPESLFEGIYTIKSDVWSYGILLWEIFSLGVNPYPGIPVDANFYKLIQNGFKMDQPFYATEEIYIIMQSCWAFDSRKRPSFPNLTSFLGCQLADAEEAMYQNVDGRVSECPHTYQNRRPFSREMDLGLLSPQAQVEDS
Test: Inhibition of FLT3, 33P-ATP kinase assay with filter-binding detection
Type: biochemical
Conditions: 33P-ATP 10 uM, 2 hours at room temperature, filter-binding method
Procedure: Prepare indicated substrate in freshly prepared Base Reaction Buffer (20 mM Hepes (pH 7.5), 10 mM MgCl2, 1 mM EGTA, 0.02% Brij35, 0.02 mg/ml BSA, 0.1 mM Na3VO4, 2 mM DTT, 1% DMSO). Deliver any required cofactors to the substrate solution above. Deliver indicated kinase into the substrate solution and gently mix. The testing compounds in DMSO was added into the kinase reaction mixture by Acoustic technology (Echo550; nanoliter range) and incubated for 20 minutes at room temperature. Deliver 33P-ATP (specific activity […]) into the reaction mixture to initiate the reaction. Incubate kinase reaction for 2 hours at room temperature. Reactions are spotted onto P81 ion exchange paper. Detect kinase activity by filter-binding method.
Inhibition of FLT3 with 4-Quinolone Derivatives

| Structure (SMILES) | IC50 [nM] |
| --- | --- |
| COc1ccc2sc3c(N)nc4ccccc4c3c(=O)c2c1 [compound 7709, 6-Amino-10-methoxy-12H-thiochromeno[2,3-c]quinolin-12-one] | > 1000 |
| CCCNc1nc2ccccc2c2c(=O)c3cc(OC)ccc3sc12 [compound 7710, 10-methoxy-6-(propylamino)-12H-thiochromeno[2,3-c]quinolin-12-one] | > 1000 |
| Nc1nc2ccccc2c2c(=O)c3cccc(Cl)c3sc12 [compound 7713, 6-Amino-8-chloro-12H-thiochromeno[2,3-c]quinolin-12-one] | > 1000 |
| NCCCNc1nc2ccccc2c2c(=O)c3cccc(Cl)c3sc12 [compound 7715, 6-(3-aminopropylamino)-8-chloro-12H-thiochromeno[2,3-c]quinolin-12-one] | < 51 |
| CNCCCNc1nc2ccccc2c2c(=O)c3cc(Cl)ccc3sc12 [compound 7721, 10-chloro-6-(3-(methylamino)propylamino)-12H-thiochromeno[2,3-c]quinolin-12-one] | 501 to 1000 |
| CN(C)CCCNc1nc2ccccc2c2c(=O)c3cc(Cl)ccc3sc12 [compound 7722, 10-chloro-6-(3-(dimethylamino)propylamino)-12H-thiochromeno[2,3-c]quinolin-12-one] | > 1000 |
| CCCNc1nc2ccccc2c2c(=O)c3ccc(Cl)cc3sc12 [compound 7725, 9-chloro-6-(propylamino)-12H-thiochromeno[2,3-c]quinolin-12-one] | > 1000 |
| O=c1c2cc(F)ccc2sc2c(OCCO)nc3ccccc3c12 [compound 7728, 10-fluoro-6-(2-hydroxyethoxy)-12H-thiochromeno[2,3-c]quinolin-12-one] | > 1000 |
| CN(C)CCCNc1nc2ccccc2c2c(=O)c3cc(F)ccc3sc12 [compound 7732, 6-(3-(dimethylamino)propylamino)-10-fluoro-12H-thiochromeno[2,3-c]quinolin-12-one] | > 1000 |
| COc1ccc2sc3c(NCCO)nc4ccccc4c3c(=O)c2c1 [compound 7733, 6-(2-Hydroxyethylamino)-10-methoxy-12H-thiochromeno[2,3-c]quinolin-12-one] | > 1000 |
| CNCCCNc1nc2ccccc2c2c(=O)c3cc(OC)ccc3sc12 [compound 7734, 10-methoxy-6-(3-(methylamino)propylamino)-12H-thiochromeno[2,3-c]quinolin-12-one] | 501 to 1000 |
| CCNc1nc2ccccc2c2c(=O)c3cc(Cl)ccc3sc12 [compound 7736, 10-chloro-6-(ethylamino)-12H-thiochromeno[2,3-c]quinolin-12-one] | > 1000 |
| COc1ccc2sc3c(NCCCO)nc4ccccc4c3c(=O)c2c1 [compound 7742, 10-methoxy-6-(3-hydroxypropylamino)-12H-thiochromeno[2,3-c]quinolin-12-one] | > 1000 |
| COCCCNc1nc2ccccc2c2c(=O)c3cc(OC)ccc3sc12 [compound 7743, 10-methoxy-6-(3-methoxypropylamino)-12H-thiochromeno[2,3-c]quinolin-12-one] | > 1000 |
| O=c1c2cc(F)ccc2sc2c(NCc3cccnc3)nc3ccccc3c12 [compound 7748, 10-fluoro-6-(pyridin-3-ylmethylamino)-12H-thiochromeno[2,3-c]quinolin-12-one] | > 1000 |

More lines, now with the values ahead:

| IC50 [nM] | Structure (SMILES) |
| --- | --- |
| > 1000 | CCCNc1nc2ccccc2c2c(=O)c3cc(F)ccc3sc12 [compound 7706, 10-fluoro-6-(propylamino)-12H-thiochromeno[2,3-c]quinolin-12-one] |
| < 51 | NCCCNc1nc2ccccc2c2c(=O)c3cc(F)ccc3sc12 [compound 7707, 6-(3-aminopropylamino)-10-fluoro-12H-thiochromeno[2,3-c]quinolin-12-one] |
| 201 to 500 | O=c1c2cc(F)ccc2sc2c(NCCCNCCO)nc3ccccc3c12 [compound 7708, 10-fluoro-6-(3-(2-hydroxyethylamino)propylamino)-12H-thiochromeno[2,3-c]quinolin-12-one] |
| 51 to 200 | COc1ccc2sc3c(NCCCN)nc4ccccc4c3c(=O)c2c1 [compound 7711, 6-(3-aminopropylamino)-10-methoxy-12H-thiochromeno[2,3-c]quinolin-12-one] |
| 501 to 1000 | COc1ccc2sc3c(NCCCNCCO)nc4ccccc4c3c(=O)c2c1 [compound 7712, 6-(3-(2-hydroxyethylamino)propylamino)-10-methoxy-12H-thiochromeno[2,3-c]quinolin-12-one] |
| 501 to 1000 | O=c1c2cccc(Cl)c2sc2c(NCCCNCCO)nc3ccccc3c12 [compound 7716, 8-chloro-6-(3-(2-hydroxyethylamino)propylamino)-12H-thiochromeno[2,3-c]quinolin-12-one] |
| > 1000 | O=c1c2cc(Cl)ccc2sc2c(NCCO)nc3ccccc3c12 [compound 7717, 10-chloro-6-(2-hydroxyethylamino)-12H-thiochromeno[2,3-c]quinolin-12-one] |
| > 1000 | O=c1c2cc(Cl)ccc2sc2c(OCCO)nc3ccccc3c12 [compound 7718, 10-chloro-6-(2-hydroxyethoxy)-12H-thiochromeno[2,3-c]quinolin-12-one] |
| > 1000 | O=c1c2cc(Cl)ccc2sc2c(NCCCO)nc3ccccc3c12 [compound 7719, 10-chloro-6-(3-hydroxypropylamino)-12H-thiochromeno[2,3-c]quinolin-12-one] |
| > 1000 | Nc1nc2ccccc2c2c(=O)c3ccc(Cl)cc3sc12 [compound 7723, 6-Amino-9-chloro-12H-thiochromeno[2,3-c]quinolin-12-one] |
| > 1000 | Nc1nc2ccccc2c2c(=O)c3c(Cl)cccc3sc12 [compound 7724, 6-Amino-11-chloro-12H-thiochromeno[2,3-c]quinolin-12-one] |
| > 1000 | O=c1c2cc(F)ccc2sc2c(NCCCO)nc3ccccc3c12 [compound 7729, 10-fluoro-6-(3-hydroxypropylamino)-12H-thiochromeno[2,3-c]quinolin-12-one] |
| > 1000 | COCCCNc1nc2ccccc2c2c(=O)c3cc(F)ccc3sc12 [compound 7730, 10-fluoro-6-(3-methoxypropylamino)-12H-thiochromeno[2,3-c]quinolin-12-one] |
| 201 to 500 | CNCCCNc1nc2ccccc2c2c(=O)c3cc(F)ccc3sc12 [compound 7731, 10-fluoro-6-(3-(methylamino)propylamino)-12H-thiochromeno[2,3-c]quinolin-12-one] |
| > 1000 | COc1ccc2sc3c(NCCCN(C)C)nc4ccccc4c3c(=O)c2c1 [compound 7735, 6-(3-(dimethylamino)propylamino)-10-methoxy-12H-thiochromeno[2,3-c]quinolin-12-one] |
| 51 to 200 | O=c1c2cc(F)ccc2sc2c(N3CCNCC3)nc3ccccc3c12 [compound 7739, 10-fluoro-6-(piperazin-1-yl)-12H-thiochromeno[2,3-c]quinolin-12-one] |
| 501 to 1000 | CN1CCN(c2nc3ccccc3c3c(=O)c4cc(F)ccc4sc23)CC1 [compound 7740, 10-fluoro-6-(4-methylpiperazin-1-yl)-12H-thiochromeno[2,3-c]quinolin-12-one] |
| 201 to 500 | CN(C)CCNc1nc2ccccc2c2c(=O)c3cc(F)ccc3sc12 [compound 7744, 6-(2-(dimethylamino)ethylamino)-10-fluoro-12H-thiochromeno[2,3-c]quinolin-12-one] |
| > 1000 | COCCNc1nc2ccccc2c2c(=O)c3cc(F)ccc3sc12 [compound 7745, 10-fluoro-6-(2-methoxyethylamino)-12H-thiochromeno[2,3-c]quinolin-12-one] |
| > 1000 | O=c1c2cc(F)ccc2sc2c(N3CCCC3)nc3ccccc3c12 [compound 7747, 10-fluoro-6-(pyrrolidin-1-yl)-12H-thiochromeno[2,3-c]quinolin-12-one] |
| > 1000 | O=c1c2cc(F)ccc2sc2c(-n3cccc3)nc3ccccc3c12 [compound 7750, 10-fluoro-6-(1H-pyrrol-1-yl)-12H-thiochromeno[2,3-c]quinolin-12-one] |
| < 51 | CNCCNc1nc2ccccc2c2c(=O)c3cc(F)ccc3sc12 [compound 7752, 10-fluoro-6-(2-(methylamino)ethylamino)-12H-thiochromeno[2,3-c]quinolin-12-one] |
